Data from ChEMBL document CHEMBL1152043, “Interphenylene phenyl oxazoles: novel, potent thromboxane receptor antagonists” (Bioorg Med Chem Lett, 1992).

Tests used:
Homo sapiens [1] = species: Homo sapiens; assay: Tested for inhibition of platelet aggregation induced by U-46,619 (U-IPA) in human platelet rich plasma; type: functional; conditions: read-out: I50
Thromboxane A2 receptor = molecular target: T1, Thromboxane A2 receptor (Homo sapiens, UniProt P21731); assay: Dissociation constant was determined from radioligand binding studies in human platelet membranes using Thromboxane A2 receptor radioligand [3H]-SQ 29,548.; type: cell membranes
T1 sequence (P21731 whole entry): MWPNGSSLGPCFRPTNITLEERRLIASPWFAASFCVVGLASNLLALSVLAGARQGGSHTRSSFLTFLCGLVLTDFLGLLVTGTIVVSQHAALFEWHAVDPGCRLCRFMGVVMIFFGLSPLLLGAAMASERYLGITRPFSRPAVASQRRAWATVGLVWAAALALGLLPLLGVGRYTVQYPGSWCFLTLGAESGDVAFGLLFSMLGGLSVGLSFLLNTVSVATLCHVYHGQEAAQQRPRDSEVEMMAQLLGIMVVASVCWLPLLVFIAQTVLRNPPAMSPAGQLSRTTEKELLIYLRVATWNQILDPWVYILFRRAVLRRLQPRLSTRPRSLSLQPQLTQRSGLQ

Homo sapiens [2] = species: Homo sapiens; assay: Tested for inhibition of platelet aggregation induced by arachidonic acid (AAIPA) in human platelet rich plasma; type: functional; conditions: read-out: I50

Row | Compound | IC50 (Homo sapiens [1]) [µM] | Kd (Thromboxane A2 receptor) [µM] | IC50 (Homo sapiens [2]) [µM]
1 | O=C(O)CCc1ccccc1Cc1ccccc1-c1nc(C(=O)NCCCCC2CCCCC2)co1 | 0.11 | 0.019 | 0.031
2 | O=C(O)Cc1ccccc1Cc1ccccc1-c1nc(C(=O)NCCCCC2CCCCC2)co1 | 330 |  | 67
3 | O=C(O)CCCc1ccccc1Cc1ccccc1-c1nc(C(=O)NCCCCC2CCCCC2)co1 | 0.63 |  | 0.058
4 | O=C(O)Cc1cccc(Cc2ccccc2-c2nc(C(=O)NCCCCC3CCCCC3)co2)c1 | 6 |  | 2
5 | O=C(O)CCc1cccc(Cc2ccccc2-c2nc(C(=O)NCCCCC3CCCCC3)co2)c1 | 2 |  | 0.47
